Experimental data published in patent US9962369B2, “Methods and compositions for transdermal delivery” (SPRAYABLE HOLDINGS, INC., priority 2014, dated 2018).

What was measured:
human skin tissue = experiment: Penetration rate of AI compound in AI-helper composition through human skin in vitro, modified Franz cells; type: in vitro ADME
Description: Penetration rate of AI compound in the AI-helper composition through human skin were measured in vitro by modified Franz cells. A Franz cell had two chambers: the top sample chamber and the bottom receiving chamber. The human skin tissue (450-500 μm thick) that separated the top and the receiving chambers was isolated from the anterior or posterior thigh areas.

clinical = conditions: human, plasma, topical, 3 mg

With `COc1ccc2[nH]cc(CCNC(C)=O)c2c1` [Melatonin] the “Skin penetration rate of melatonin” value (human skin tissue; 1% melatonin (a suspension) without helper esters, 20° C.) was 1.153 ± 0.111 μg/cm^2/h, the “Skin penetration rate of melatonin” value (human skin tissue; melatonin 1% w/v, Tryptophan isopropyl ester•HA 6% w/v, HA = 1/2H2SO4, water, 20° C.) was 15.928 ± 1.476 μg/cm^2/h and the “Skin penetration rate of melatonin” value (human skin tissue; melatonin 1% w/v, Tryptophan isopropyl ester•HA 6% w/v, HA = 2/3H3PO4, water, 20° C.) was 15.691 ± 1.571 μg/cm^2/h. The “Skin penetration rate of melatonin” value (human skin tissue; melatonin 1% w/v, Tryptophan isopropyl ester•HA 6% w/v, HA = Benzoic acid, water, 20° C.) was 14.665 ± 1.589 μg/cm^2/h, the “Skin penetration rate of melatonin” value (human skin tissue; melatonin 1% w/v, Tryptophan isopropyl ester•HA 6% w/v, HA = Butyric acid, water, 20° C.) was 15.378 ± 1.598 μg/cm^2/h and the “Skin penetration rate of melatonin” value (human skin tissue; melatonin 1% w/v, Tryptophan isopropyl ester•HA 6% w/v, HA = Citric acid, water, 20° C.) was 15.371 ± 1.287 μg/cm^2/h. The “Skin penetration rate of melatonin” value (human skin tissue; melatonin 1% w/v, Tryptophan isopropyl ester•HA 6% w/v, HA = H2SO4, water, 20° C.) was 16.780 ± 1.891 μg/cm^2/h, the “Skin penetration rate of melatonin” value (human skin tissue; melatonin 1% w/v, Tryptophan isopropyl ester•HA 6% w/v, HA = HBr, water, 20° C.) was 15.971 ± 1.785 μg/cm^2/h and the “Skin penetration rate of melatonin” value (human skin tissue; melatonin 1% w/v, Tryptophan isopropyl ester•HA 6% w/v, HA = HCl, water, 20° C.) was 16.678 ± 1.567 μg/cm^2/h. The “Skin penetration rate of melatonin” value (human skin tissue; melatonin 1% w/v, Tryptophan isopropyl ester•HA 6% w/v, HA = HF, water, 20° C.) was 16.165 ± 1.167 μg/cm^2/h, the “Skin penetration rate of melatonin” value (human skin tissue; melatonin 1% w/v, Tryptophan isopropyl ester•HA 6% w/v, HA = HI, water, 20° C.) was 14.467 ± 1.183 μg/cm^2/h and the “Skin penetration rate of melatonin” value (human skin tissue; melatonin 1% w/v, Tryptophan isopropyl ester•HA 6% w/v, HA = Lactic acid, water, 20° C.) was 15.897 ± 1.109 μg/cm^2/h. For the same molecule, the “Skin penetration rate of melatonin” value (human skin tissue; melatonin 1% w/v, Tyrosine isopropyl ester•HA 6% w/v, HA = 1/2H2SO4, water, 20° C.) was 15.978 ± 2.136 μg/cm^2/h, the “Skin penetration rate of melatonin” value (human skin tissue; melatonin 1% w/v, Tyrosine isopropyl ester•HA 6% w/v, HA = 1/3H3PO4, water, 20° C.) was 15.848 ± 1.782 μg/cm^2/h and the “Skin penetration rate of melatonin” value (human skin tissue; melatonin 1% w/v, Tyrosine isopropyl ester•HA 6% w/v, HA = 2/3H3PO4, water, 20° C.) was 16.156 ± 3.124 μg/cm^2/h. For the same molecule, the “Skin penetration rate of melatonin” value (human skin tissue; melatonin 1% w/v, Tyrosine isopropyl ester•HA 6% w/v, HA = Acetic acid, water, 20° C.) was 15.983 ± 3.471 μg/cm^2/h, the “Skin penetration rate of melatonin” value (human skin tissue; melatonin 1% w/v, Tyrosine isopropyl ester•HA 6% w/v, HA = Benzoic acid, water, 20° C.) was 17.002 ± 3.257 μg/cm^2/h and the “Skin penetration rate of melatonin” value (human skin tissue; melatonin 1% w/v, Tyrosine isopropyl ester•HA 6% w/v, HA = Butyric acid, water, 20° C.) was 16.125 ± 1.972 μg/cm^2/h. For the same molecule, the “Skin penetration rate of melatonin” value (human skin tissue; melatonin 1% w/v, Tyrosine isopropyl ester•HA 6% w/v, HA = Citric acid, water, 20° C.) was 16.246 ± 2.319 μg/cm^2/h, the “Skin penetration rate of melatonin” value (human skin tissue; melatonin 1% w/v, Tyrosine isopropyl ester•HA 6% w/v, HA = H2SO4, water, 20° C.) was 16.632 ± 1.357 μg/cm^2/h and the “Skin penetration rate of melatonin” value (human skin tissue; melatonin 1% w/v, Tyrosine isopropyl ester•HA 6% w/v, HA = HBr, water, 20° C.) was 16.578 ± 2.117 μg/cm^2/h. For the same molecule, the “Skin penetration rate of melatonin” value (human skin tissue; melatonin 1% w/v, Tyrosine isopropyl ester•HA 6% w/v, HA = HF, water, 20° C.) was 15.765 ± 1.946 μg/cm^2/h, the “Skin penetration rate of melatonin” value (human skin tissue; melatonin 1% w/v, Tyrosine isopropyl ester•HA 6% w/v, HA = HI, water, 20° C.) was 15.863 ± 1.970 μg/cm^2/h and the “Skin penetration rate of melatonin” value (human skin tissue; melatonin 1% w/v, Tyrosine isopropyl ester•HA 6% w/v, HA = Lactic acid, water, 20° C.) was 16.029 ± 2.467 μg/cm^2/h. For the same molecule, the “Skin penetration rate of melatonin” value (human skin tissue; no helper ester (None), melatonin 1 % w/v (suspension) in water, 20 °C) was 1.153 ± 0.111 μg/cm^2/h, the “Skin penetration rate of AI compound” value (human skin tissue; no isoleucine ester (None), AI compound 0.5 % w/v (a suspension) in water, 20 °C) was 1.147 ± 0.123 μg/cm^2/h and the “Skin penetration rate of AI compound” value (human skin tissue; no leucine ester (None), AI compound 0.5 % w/v (a suspension) in water, 20 °C) was 1.147 ± 0.123 μg/cm^2/h. For the same molecule, the “Skin penetration rate of melatonin” value (human skin tissue; no proline ester (None), melatonin 0.5 % w/v (suspension) in water, 20 °C) was 1.147 ± 0.123 μg/cm^2/h, the “Skin penetration rate of AI compound” value (human skin tissue; no tryptophan ester (None), AI compound 1 % w/v (suspension) in water, 20 °C) was 1.153 ± 0.111 μg/cm^2/h and the “Skin penetration rate of melatonin” value (human skin tissue; no tyrosine ester (None), melatonin 1 % w/v (suspension) in water, 20 °C) was 1.153 ± 0.111 μg/cm^2/h. The “Skin penetration rate of AI compound” value (human skin tissue; with D-tryptophan ethyl ester hydrochloride 6 % w/v in water, AI compound 1 % w/v, 20 °C) was 16.011 ± 1.511 μg/cm^2/h, the “Skin penetration rate of AI compound” value (human skin tissue; with D-tryptophan isopropyl ester hydrochloride 6 % w/v in water, AI compound 1 % w/v, 20 °C) was 16.451 ± 1.473 μg/cm^2/h and the “Skin penetration rate of AI compound” value (human skin tissue; with D-tryptophan pentyl ester hydrochloride 6 % w/v in water, AI compound 1 % w/v, 20 °C) was 15.003 ± 1.513 μg/cm^2/h. The “Skin penetration rate of AI compound” value (human skin tissue; with L-isoleucine ethyl ester hydrochloride 6 % w/v in water, AI compound 0.5 % w/v, 20 °C) was 9.012 ± 0.148 μg/cm^2/h, the “Skin penetration rate of AI compound” value (human skin tissue; with L-isoleucine isopropyl ester hydrochloride 6 % w/v in water, AI compound 0.5 % w/v, 20 °C) was 9.015 ± 0.161 μg/cm^2/h and the “Skin penetration rate of AI compound” value (human skin tissue; with L-isoleucine methyl ester hydrochloride 6 % w/v in water, AI compound 0.5 % w/v, 20 °C) was 8.712 ± 0.168 μg/cm^2/h. The “Skin penetration rate of AI compound” value (human skin tissue; with L-isoleucine pentyl ester hydrochloride 6 % w/v in water, AI compound 0.5 % w/v, 20 °C) was 8.219 ± 0.201 μg/cm^2/h, the “Skin penetration rate of AI compound” value (human skin tissue; with L-leucine ethyl ester hydrochloride 6 % w/v in water, AI compound 0.5 % w/v, 20 °C) was 9.101 ± 0.153 μg/cm^2/h and the “Skin penetration rate of AI compound” value (human skin tissue; with L-leucine hexyl ester hydrochloride 6 % w/v in water, AI compound 0.5 % w/v, 20 °C) was 8.019 ± 0.181 μg/cm^2/h. The “Skin penetration rate of AI compound” value (human skin tissue; with L-leucine isopropyl ester hydrochloride 6 % w/v in water, AI compound 0.5 % w/v, 20 °C) was 9.371 ± 0.137 μg/cm^2/h, the “Skin penetration rate of AI compound” value (human skin tissue; with L-leucine methyl ester hydrochloride 6 % w/v in water, AI compound 0.5 % w/v, 20 °C) was 9.058 ± 0.131 μg/cm^2/h and the “Skin penetration rate of AI compound” value (human skin tissue; with L-tryptophan butyl ester hydrochloride 6 % w/v in water, AI compound 1 % w/v, 20 °C) was 15.676 ± 1.574 μg/cm^2/h. The “Skin penetration rate of AI compound” value (human skin tissue; with L-tryptophan isopropyl ester hydrochloride 6 % w/v in water, AI compound 1 % w/v, 20 °C) was 16.678 ± 1.567 μg/cm^2/h, the “Skin penetration rate of AI compound” value (human skin tissue; with L-tryptophan pentyl ester hydrochloride 6 % w/v in water, AI compound 1 % w/v, 20 °C) was 15.012 ± 1.315 μg/cm^2/h and the concentration at 0 hr (clinical) was 0 ng/mL. For the same molecule, the concentration at 1 h (clinical) was 1.4 ng/mL, the concentration at 1 hr (clinical) was 1.6 ng/mL and the concentration at 2 h (clinical) was 1.5 ng/mL. For the same molecule, the concentration at 2 hr (clinical) was 1.7 ng/mL, the concentration at 4 h (clinical) was 1.5 ng/mL and the concentration at 4 hr (clinical) was 1.8 ng/mL. The concentration at 8 h (clinical) was 1.4 ng/mL and the concentration at 8 hr (clinical) was 1.7 ng/mL.
